Series [1] concerns the target Receptor-interacting serine/threonine-protein kinase 2 (Homo sapiens, UniProt O43353). Briefly: Binding affinity to RIPK2 (unknown origin) assessed as dissociation constant by kinomescan assay.
The next series deals with THP-1. Briefly: Antiinflammatory activity in MDP-stimulated IL-8 production in human THP-1 cells pretreated for 2 hrs followed by MDP stimulation for 6 hrs. The series is classed as functional, cell-based.
Series [2] can be described thus: Metabolic stability in mouse liver microsomes assessed as intrinsic clearance. The series is classed as ADME. The note with it: read-out: CLH. (Liver microsomes are a subcellular fraction often used to study metabolism.)
For series [3], the target named is T1, Receptor-interacting serine/threonine-protein kinase 1 (Homo sapiens, UniProt Q13546).
T1 sequence (Q13546 whole entry): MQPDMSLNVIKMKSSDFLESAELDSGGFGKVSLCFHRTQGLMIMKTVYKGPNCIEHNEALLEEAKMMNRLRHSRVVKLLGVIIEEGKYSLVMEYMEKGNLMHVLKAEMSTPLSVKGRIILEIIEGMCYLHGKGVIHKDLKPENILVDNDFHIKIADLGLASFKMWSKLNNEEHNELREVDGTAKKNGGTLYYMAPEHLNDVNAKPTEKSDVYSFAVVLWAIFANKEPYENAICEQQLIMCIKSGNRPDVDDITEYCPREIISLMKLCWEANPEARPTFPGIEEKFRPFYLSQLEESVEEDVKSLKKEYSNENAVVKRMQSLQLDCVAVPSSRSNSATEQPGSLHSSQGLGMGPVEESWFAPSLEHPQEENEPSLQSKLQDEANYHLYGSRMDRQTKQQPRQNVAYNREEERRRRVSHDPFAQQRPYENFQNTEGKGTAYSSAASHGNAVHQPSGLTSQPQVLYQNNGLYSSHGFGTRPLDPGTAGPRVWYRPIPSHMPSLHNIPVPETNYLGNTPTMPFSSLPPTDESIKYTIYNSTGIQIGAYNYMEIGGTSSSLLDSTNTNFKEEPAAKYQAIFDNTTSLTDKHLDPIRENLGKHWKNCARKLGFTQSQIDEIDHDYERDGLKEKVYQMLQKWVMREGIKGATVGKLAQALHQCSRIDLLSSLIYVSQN
Briefly: Binding affinity to RIPK1 (unknown origin) assessed as dissociation constant by kinomescan assay.

In another series the target is T2, CYP1A2 (Homo sapiens, UniProt P05177).
T2 sequence (P05177 whole entry): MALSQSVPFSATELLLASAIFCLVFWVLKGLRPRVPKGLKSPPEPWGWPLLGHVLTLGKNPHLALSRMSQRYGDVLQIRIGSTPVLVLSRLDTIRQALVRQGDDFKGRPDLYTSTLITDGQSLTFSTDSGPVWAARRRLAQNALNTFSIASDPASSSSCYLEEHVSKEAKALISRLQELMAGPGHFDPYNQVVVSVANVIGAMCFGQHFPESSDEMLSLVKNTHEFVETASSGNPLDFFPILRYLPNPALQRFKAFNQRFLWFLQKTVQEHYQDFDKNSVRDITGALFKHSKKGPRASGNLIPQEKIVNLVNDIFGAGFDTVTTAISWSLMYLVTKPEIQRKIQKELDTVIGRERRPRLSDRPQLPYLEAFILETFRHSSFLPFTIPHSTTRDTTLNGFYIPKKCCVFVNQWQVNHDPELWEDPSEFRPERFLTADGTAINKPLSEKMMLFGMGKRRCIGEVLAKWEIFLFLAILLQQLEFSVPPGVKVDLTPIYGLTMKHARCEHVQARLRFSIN
As to the kind of experiment: Inhibition of CYP1A2 (unknown origin) at 10 uM relative to control. The class given is ADME.

In another series the target is CYP2C19 (Homo sapiens, UniProt P33261). As to the kind of experiment: Inhibition of CYP2C19 (unknown origin) at 10 uM relative to control. The class given is ADME.
Sequence of CYP2C19 (P33261 whole entry): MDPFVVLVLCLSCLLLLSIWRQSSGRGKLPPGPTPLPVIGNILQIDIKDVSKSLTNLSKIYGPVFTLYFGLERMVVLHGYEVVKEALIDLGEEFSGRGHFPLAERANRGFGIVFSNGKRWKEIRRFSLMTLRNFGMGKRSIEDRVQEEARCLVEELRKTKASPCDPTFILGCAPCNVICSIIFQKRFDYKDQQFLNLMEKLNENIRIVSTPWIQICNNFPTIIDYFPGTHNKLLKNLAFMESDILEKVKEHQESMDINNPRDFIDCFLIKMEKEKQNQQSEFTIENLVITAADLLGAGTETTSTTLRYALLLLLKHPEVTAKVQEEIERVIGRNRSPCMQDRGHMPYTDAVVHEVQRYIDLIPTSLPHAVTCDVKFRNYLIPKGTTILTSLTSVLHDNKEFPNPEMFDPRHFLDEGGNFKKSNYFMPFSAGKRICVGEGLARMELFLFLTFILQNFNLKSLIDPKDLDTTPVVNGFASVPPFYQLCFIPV
Series [4] can be described thus: Metabolic stability in human liver microsomes assessed as intrinsic clearance. As to conditions: read-out: CLH. The class given is ADME.
A short description of series [5]: Metabolic stability in human liver microsomes assessed as half life. The class given is ADME.
Series [6] addresses T3, CYP3A4 (Homo sapiens, UniProt P08684). Briefly: Inhibition of CYP3A4 (unknown origin) at 10 uM using testosterone as substrate relative to control. The class given is ADME. As to conditions: probe testosterone.
In series [7] the target is T3, CYP3A4. As to the kind of experiment: Inhibition of CYP3A4 (unknown origin) at 10 uM using midazolam as substrate relative to control. The series is classed as ADME. The note with it: probe midazolam.
Series [8] is described as follows: Metabolic stability in monkey liver microsomes assessed as intrinsic clearance. As to conditions: rhesus monkey, read-out: CLH. The series is classed as ADME, Macaca mulatta.
Series [9] in a line: Metabolic stability in rat liver microsomes assessed as intrinsic clearance. The series is classed as ADME. The note with it: read-out: CLH.
The target in the next series is CYP2C9 (Homo sapiens, UniProt P11712). As to the kind of experiment: Inhibition of CYP2C9 (unknown origin) at 10 uM relative to control. The class given is ADME.
Sequence of CYP2C9 (P11712 whole entry): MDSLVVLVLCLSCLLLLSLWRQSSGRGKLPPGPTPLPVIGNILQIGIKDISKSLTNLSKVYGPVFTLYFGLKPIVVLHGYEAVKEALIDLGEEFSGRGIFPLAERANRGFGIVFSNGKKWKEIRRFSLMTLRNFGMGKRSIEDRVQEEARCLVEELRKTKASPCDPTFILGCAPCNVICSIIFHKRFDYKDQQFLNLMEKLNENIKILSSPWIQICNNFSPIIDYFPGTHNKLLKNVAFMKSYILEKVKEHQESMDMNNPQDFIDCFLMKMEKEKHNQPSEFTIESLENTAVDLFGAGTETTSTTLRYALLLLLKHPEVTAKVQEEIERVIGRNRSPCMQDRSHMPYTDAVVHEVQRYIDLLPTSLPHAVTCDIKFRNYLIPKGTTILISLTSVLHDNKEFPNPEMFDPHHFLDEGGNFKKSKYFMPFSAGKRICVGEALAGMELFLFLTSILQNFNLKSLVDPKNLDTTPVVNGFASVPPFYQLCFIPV
Series [10] in a line: Metabolic stability in monkey liver microsomes assessed as half life. As to conditions: rhesus monkey. The class given is ADME, Macaca mulatta.
Series [11] in a line: Metabolic stability in rat liver microsomes assessed as half life. The class given is ADME.
Series [12] in a line: Metabolic stability in dog liver microsomes assessed as intrinsic clearance. The note with it: read-out: CLH. The class given is ADME, Canis lupus familiaris.
Series [13] deals with Receptor-interacting serine/threonine-protein kinase 3 (Homo sapiens, UniProt Q9Y572). Briefly: Binding affinity to RIPK3 (unknown origin) assessed as dissociation constant by kinomescan assay.
Sequence of Receptor-interacting serine/threonine-protein kinase 3 (Q9Y572 whole entry): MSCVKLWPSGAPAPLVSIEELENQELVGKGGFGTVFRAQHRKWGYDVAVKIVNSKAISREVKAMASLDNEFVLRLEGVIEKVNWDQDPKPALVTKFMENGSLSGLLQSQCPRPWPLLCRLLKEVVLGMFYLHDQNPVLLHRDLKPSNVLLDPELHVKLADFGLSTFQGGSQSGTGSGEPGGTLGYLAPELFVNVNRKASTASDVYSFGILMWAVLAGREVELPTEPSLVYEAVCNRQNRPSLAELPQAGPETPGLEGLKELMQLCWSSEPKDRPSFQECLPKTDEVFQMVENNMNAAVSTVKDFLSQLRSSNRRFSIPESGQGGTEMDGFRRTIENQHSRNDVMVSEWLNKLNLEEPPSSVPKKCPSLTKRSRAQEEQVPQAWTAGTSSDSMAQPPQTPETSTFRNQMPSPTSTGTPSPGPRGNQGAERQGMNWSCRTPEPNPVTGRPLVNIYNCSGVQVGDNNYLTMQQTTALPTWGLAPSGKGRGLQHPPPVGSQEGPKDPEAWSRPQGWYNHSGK
The target of another series is CYP2D6 (Homo sapiens, UniProt P10635). Briefly: Inhibition of CYP2D6 (unknown origin) at 10 uM relative to control. The series is classed as ADME.
Sequence of CYP2D6 (P10635 whole entry): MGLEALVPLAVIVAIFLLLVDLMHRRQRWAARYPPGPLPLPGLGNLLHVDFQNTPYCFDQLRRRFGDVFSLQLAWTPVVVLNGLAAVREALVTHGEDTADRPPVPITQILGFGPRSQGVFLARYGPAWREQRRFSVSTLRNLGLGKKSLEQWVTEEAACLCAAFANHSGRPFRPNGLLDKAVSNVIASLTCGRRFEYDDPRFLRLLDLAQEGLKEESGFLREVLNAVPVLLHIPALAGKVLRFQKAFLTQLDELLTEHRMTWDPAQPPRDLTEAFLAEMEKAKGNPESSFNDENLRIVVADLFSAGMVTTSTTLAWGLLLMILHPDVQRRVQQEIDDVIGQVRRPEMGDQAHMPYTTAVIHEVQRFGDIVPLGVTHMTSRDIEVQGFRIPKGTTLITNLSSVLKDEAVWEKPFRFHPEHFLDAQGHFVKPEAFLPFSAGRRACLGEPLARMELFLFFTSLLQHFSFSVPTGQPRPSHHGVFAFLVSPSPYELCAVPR
Series [14] is described as follows: Metabolic stability in mouse liver microsomes assessed as half life. The class given is ADME.
Series [15] can be described thus: Metabolic stability in dog liver microsomes assessed as half life. The class given is ADME, Canis lupus familiaris.
In series [16] the target is Voltage-gated inwardly rectifying potassium channel KCNH2 (Homo sapiens, UniProt Q12809). As to the kind of experiment: Inhibition of hERG. The class given is toxicity.
Sequence of Voltage-gated inwardly rectifying potassium channel KCNH2 (Q12809 whole entry): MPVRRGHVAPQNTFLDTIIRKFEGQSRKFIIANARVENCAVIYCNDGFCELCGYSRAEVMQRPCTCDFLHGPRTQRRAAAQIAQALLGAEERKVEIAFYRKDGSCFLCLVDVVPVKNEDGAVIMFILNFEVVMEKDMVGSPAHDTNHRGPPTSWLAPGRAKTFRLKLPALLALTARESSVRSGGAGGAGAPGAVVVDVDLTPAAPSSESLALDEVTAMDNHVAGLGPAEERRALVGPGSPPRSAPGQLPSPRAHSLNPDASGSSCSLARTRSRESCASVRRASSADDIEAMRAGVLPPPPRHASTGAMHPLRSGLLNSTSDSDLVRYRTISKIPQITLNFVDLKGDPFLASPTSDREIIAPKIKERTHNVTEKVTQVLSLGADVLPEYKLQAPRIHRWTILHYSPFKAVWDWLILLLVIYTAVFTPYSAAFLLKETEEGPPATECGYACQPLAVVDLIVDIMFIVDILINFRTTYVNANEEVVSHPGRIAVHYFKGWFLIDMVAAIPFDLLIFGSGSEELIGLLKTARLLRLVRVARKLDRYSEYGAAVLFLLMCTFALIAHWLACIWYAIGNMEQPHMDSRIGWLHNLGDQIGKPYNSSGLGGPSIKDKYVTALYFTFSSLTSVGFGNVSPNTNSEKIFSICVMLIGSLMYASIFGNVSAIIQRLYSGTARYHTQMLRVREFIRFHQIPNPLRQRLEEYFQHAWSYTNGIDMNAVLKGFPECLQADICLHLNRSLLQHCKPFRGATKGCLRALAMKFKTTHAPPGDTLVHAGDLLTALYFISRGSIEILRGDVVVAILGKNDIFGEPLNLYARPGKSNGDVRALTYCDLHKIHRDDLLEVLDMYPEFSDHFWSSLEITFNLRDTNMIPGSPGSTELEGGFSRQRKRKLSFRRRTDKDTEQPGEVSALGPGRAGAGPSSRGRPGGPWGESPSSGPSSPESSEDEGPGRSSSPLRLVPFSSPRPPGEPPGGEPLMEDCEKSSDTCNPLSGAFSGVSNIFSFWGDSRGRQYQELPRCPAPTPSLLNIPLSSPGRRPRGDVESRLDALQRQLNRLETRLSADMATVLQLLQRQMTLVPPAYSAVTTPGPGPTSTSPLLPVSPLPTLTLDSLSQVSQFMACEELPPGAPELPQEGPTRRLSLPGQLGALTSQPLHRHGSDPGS

Each structure is given as a SMILES string. Some results are limits rather than exact numbers.

Consider 18 molecules from ChEMBL document CHEMBL5223112, “Design, synthesis, and structure-activity relationship of novel RIPK2 inhibitors” (Bioorg Med Chem Lett, 2022).

As a reminder, the Kd is a measure of binding affinity in units of concentration. The term IC50 denotes the point on the concentration scale where inhibition reaches its midpoint. In general, inhibition refers to the change of the read-out against control, counted positive when it falls. A word on the half-life: it is the time needed for the level to fall by half in the phase considered.

T3 sequence (P08684 whole entry): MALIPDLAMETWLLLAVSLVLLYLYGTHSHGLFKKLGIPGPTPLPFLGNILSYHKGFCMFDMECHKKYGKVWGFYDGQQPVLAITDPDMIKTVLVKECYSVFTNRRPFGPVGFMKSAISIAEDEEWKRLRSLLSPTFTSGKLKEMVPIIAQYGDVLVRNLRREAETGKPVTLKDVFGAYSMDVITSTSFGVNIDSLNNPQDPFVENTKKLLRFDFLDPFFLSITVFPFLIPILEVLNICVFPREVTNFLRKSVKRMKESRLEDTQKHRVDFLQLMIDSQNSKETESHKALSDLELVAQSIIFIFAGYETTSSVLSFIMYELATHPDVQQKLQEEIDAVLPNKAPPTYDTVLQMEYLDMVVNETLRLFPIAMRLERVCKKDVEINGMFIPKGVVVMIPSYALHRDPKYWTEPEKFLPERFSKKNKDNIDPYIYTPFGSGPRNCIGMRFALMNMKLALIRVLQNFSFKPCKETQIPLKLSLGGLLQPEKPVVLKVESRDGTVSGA
Sequence of Receptor-interacting serine/threonine-protein kinase 2 (O43353 whole entry): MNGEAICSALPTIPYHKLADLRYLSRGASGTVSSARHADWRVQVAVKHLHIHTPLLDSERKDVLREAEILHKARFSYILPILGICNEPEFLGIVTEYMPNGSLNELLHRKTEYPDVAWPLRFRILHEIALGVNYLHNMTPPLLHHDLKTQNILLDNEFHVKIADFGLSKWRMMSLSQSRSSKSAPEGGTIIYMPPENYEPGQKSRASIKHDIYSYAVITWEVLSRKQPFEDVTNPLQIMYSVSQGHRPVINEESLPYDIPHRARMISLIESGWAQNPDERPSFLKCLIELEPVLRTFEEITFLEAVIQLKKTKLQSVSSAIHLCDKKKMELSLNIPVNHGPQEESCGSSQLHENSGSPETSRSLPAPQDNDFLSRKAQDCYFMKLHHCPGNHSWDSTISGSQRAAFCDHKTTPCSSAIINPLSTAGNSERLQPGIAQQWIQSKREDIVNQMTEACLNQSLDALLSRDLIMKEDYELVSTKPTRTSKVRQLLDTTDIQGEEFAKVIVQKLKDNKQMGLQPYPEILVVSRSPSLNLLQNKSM

For `CC(C)(C)S(=O)(=O)c1cc2c(Nc3ccc4scnc4c3)ncnc2cc1OCCOP(=O)(O)O`, the Kd in [1] came out at 0.78 nM. The IC50 in the series with THP-1 is 1.34 nM.

Take `CCOC1=CS(=O)(=O)c2cc3c(Nc4ccc5scnc5c4)ncnc3cc21`: the CLint scaled in series [2] worked out at 87 mL/min/kg; in series [4] it was 9.19 mL/min/kg; in series [8], 53.3 mL/min/kg; in [9], 17.5 mL/min/kg; in [12] it was 133 mL/min/kg. Besides, the Kd was > 30000 nM in series [3], 5.9 nM in series [1] and 43 nM in [13]. Moreover, the inhibition at 10 µM against CYP1A2 was 18.1%; on CYP2C19, 16.6%; against CYP3A4 [6], -0.93%; against CYP3A4 [7] it was 0%; at CYP2C9, 10.7%; against CYP2D6, -23.2%. For the same molecule, the half-life in [5] stood at 189 min; in [10], 38 min; in series [11] it was 142 min; in [14] it was 62.7 min; in series [15], 25.9 min. Moreover, the IC50 is 1.99 nM in the series on THP-1 and > 10000 nM in series [16].

Regarding `COC1=CS(=O)(=O)c2cc3c(Nc4ccc5scnc5c4)ncnc3cc21`, the Kd in series [1] amounted to 27 nM.

Consider `CC1=C(C)S(=O)(=O)c2cc3c(Nc4ccc5scnc5c4)ncnc3cc21`, for which the CLint scaled in [2] came to 230 mL/min/kg; in series [4], 32.8 mL/min/kg; in series [8], 97 mL/min/kg; in [9] it was 42.1 mL/min/kg; in series [12] it was 749 mL/min/kg. In addition, the inhibition at 10 µM was 14.9% on CYP1A2; 11.5% against CYP2C19; 6.88% on CYP3A4 [6]; -3.32% on CYP3A4 [7]; -1.42% at CYP2C9; -15.7% at CYP2D6. The half-life in [5] was determined as 53 min; in [10] it was 20.9 min; in series [11], 59 min; in series [14], 23.7 min; in [15] it was 4.61 min. Further, the equilibrium dissociation constant (Kd) in series [1] amounted to 8.2 nM.

As for `CC1=CS(=O)(=O)c2cc3c(Nc4ccc5scnc5c4)ncnc3cc21`, the Kd in series [1] was 14 nM.

As for `CC1=Cc2cc3ncnc(Nc4ccc5scnc5c4)c3cc2S1(=O)=O`, the Kd in series [1] was 55 nM.

As to `O=S1(=O)C=C(C2CC2)c2cc3ncnc(Nc4ccc5nc[nH]c5c4)c3cc21`, the Kd in [1] stood at 325 nM.

With `O=S1(=O)C=C(C2CC2)c2cc3ncnc(Nc4cc(O)ccc4F)c3cc21`, the Kd in series [1] was 14 nM.

For `O=S1(=O)C=C(C2CC2)c2cc3ncnc(Nc4n[nH]c5ccc(F)cc45)c3cc21`, in series [1], the Kd was 10 nM.

Consider `O=S1(=O)C=C(c2ccc(F)cc2)c2cc3ncnc(Nc4ccc5scnc5c4)c3cc21`, for which the Kd in series [1] worked out at 545 nM.

With `O=S1(=O)C=C(C2CC2)c2cc3ncnc(Nc4ccc5scnc5c4)c3cc21`, the CLint scaled in series [2] stood at 344 mL/min/kg; in series [4] it was 27 mL/min/kg; in series [8], 71 mL/min/kg; in [9], 40.8 mL/min/kg; in series [12] it was 320 mL/min/kg. Further, the inhibition at 10 µM against CYP1A2 is 19.9%; against CYP2C19, 40.6%; against CYP3A4 [6] it was 14.3%; against CYP3A4 [7] it was 14.9%; at CYP2C9, 11.9%; against CYP2D6, -13.6%. For the same molecule, the half-life stood at 64.3 min in [5]; 28.5 min in series [10]; 61 min in series [11]; 15.9 min in [14]; 10.8 min in [15]. Moreover, the dissociation constant Kd in series [1] was determined as 3.3 nM.

As for `O=S1(=O)C=C(c2ccccc2)c2cc3ncnc(Nc4ccc5scnc5c4)c3cc21`, in series [1], the Kd is 109 nM.

Turning to `Cc1[nH]nc(Nc2ncnc3cc4c(cc23)S(=O)(=O)C=C4C2CC2)c1C`, in [1], the Kd is 10 nM.

Regarding `O=S1(=O)C=C(C2CC2)c2cc3ncnc(Nc4ccc5nn[nH]c5c4)c3cc21`, the Kd in series [1] is 10 nM.

On to `CCOC1=C(C)S(=O)(=O)c2cc3c(Nc4ccc5scnc5c4)ncnc3cc21`, for which the Kd in series [1] was 24 nM.

On to `Cc1ccc(O)cc1Nc1ncnc2cc3c(cc12)S(=O)(=O)C=C3C1CC1`, for which, in series [1], the dissociation constant (Kd) came to 70 nM.

On to `O=S1(=O)C=C(C2CC2)c2cc3ncnc(Nc4ccc5cc[nH]c5c4)c3cc21`, for which, in series [1], the dissociation constant (Kd) came out at 1200 nM.

Turning to `CC1=Cc2cc3nc(C)nc(Nc4ccc5scnc5c4)c3cc2S1(=O)=O`, in [1], the Kd was 685 nM.
